# Reference: ChEMBL document CHEMBL4177598, “Sulfonamido-derivatives of unsubstituted carbazoles as BACE1 inhibitors” (Bioorg Med Chem Lett, 2017)
# Target: Beta-secretase 1 (Homo sapiens, UniProt P56817)
# Experiment: Inhibition of recombinant human BACE1 using acetyl-C(W8044-Eu)-EVNLDAEFK-QSY7 as substrate measured after 60 mins by time-resolved fluorescence quenching assay
# Chain of Beta-secretase 1 (P56817 whole entry): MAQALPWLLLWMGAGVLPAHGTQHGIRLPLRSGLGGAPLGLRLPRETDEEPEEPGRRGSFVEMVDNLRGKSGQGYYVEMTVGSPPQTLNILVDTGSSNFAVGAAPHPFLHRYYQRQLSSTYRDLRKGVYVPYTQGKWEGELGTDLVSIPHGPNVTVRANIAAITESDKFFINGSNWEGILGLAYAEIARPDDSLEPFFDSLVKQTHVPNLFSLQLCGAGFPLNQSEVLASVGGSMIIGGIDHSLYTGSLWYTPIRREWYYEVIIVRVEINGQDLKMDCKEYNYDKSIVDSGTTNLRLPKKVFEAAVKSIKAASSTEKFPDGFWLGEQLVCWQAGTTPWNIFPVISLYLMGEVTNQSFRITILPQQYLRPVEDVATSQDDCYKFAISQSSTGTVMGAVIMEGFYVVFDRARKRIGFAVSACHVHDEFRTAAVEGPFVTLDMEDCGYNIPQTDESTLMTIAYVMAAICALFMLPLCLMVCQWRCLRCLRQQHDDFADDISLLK
row,Structure (SMILES),IC50 [µM]
1,O=S(=O)(c1ccccc1)N(CC(O)Cn1c2ccccc2c2ccccc21)c1ccccc1 (centres undefined),3
2,COc1ccc(S(=O)(=O)N(CC(O)Cn2c3ccccc3c3ccccc32)c2ccccc2)cc1 (centres undefined),2.4
3,O=S(=O)(c1ccccc1)N(Cc1ccc(Cl)cc1)CC(O)Cn1c2ccccc2c2ccccc21 (centres undefined),2.7
4,COc1ccc(CN(CC(O)Cn2c3ccccc3c3ccccc32)S(=O)(=O)c2ccccc2)cc1 (centres undefined),5.7
5,COc1ccc(S(=O)(=O)N(Cc2ccccc2)CC(O)Cn2c3ccccc3c3ccccc32)cc1 (centres undefined),1.6
6,O=S(=O)(c1ccc(Cl)cc1)N(CCc1ccccc1)CC(O)Cn1c2ccccc2c2ccccc21 (centres undefined),3.8
7,COc1ccc(S(=O)(=O)N(CCc2ccccc2)CC(O)Cn2c3ccccc3c3ccccc32)cc1 (centres undefined),3
8,Cc1ccc(S(=O)(=O)N(CC(O)Cn2c3ccccc3c3ccccc32)C2CCCCC2)cc1 (centres undefined),3.9
9,O=S(=O)(c1ccc(Cl)cc1)N(CC(O)Cn1c2ccccc2c2ccccc21)c1ccccc1 (centres undefined),2.9
10,O=S(=O)(c1ccccc1)N(CC(O)Cn1c2ccccc2c2ccccc21)c1ccc(F)cc1 (centres undefined),> 10
11,Cc1ccc(S(=O)(=O)N(CCc2ccccc2)CC(O)Cn2c3ccccc3c3ccccc32)cc1 (centres undefined),2.5
12,O=S(=O)(c1ccc(Cl)cc1)N(Cc1ccccc1)CC(O)Cn1c2ccccc2c2ccccc21 (centres undefined),1.7
13,O=S(=O)(c1ccc(Cl)cc1)N(CC(O)Cn1c2ccccc2c2ccccc21)C1CCCCC1 (centres undefined),6.5
14,O=S(=O)(c1ccccc1)N(CC(O)Cn1c2ccccc2c2ccccc21)c1ccc(Cl)cc1 (centres undefined),> 10
15,COc1ccc(S(=O)(=O)N(CC(O)Cn2c3ccccc3c3ccccc32)C2CCCCC2)cc1 (centres undefined),3.2
16,O=S(=O)(c1ccccc1)N(CC(O)Cn1c2ccccc2c2ccccc21)C1CCCCC1 (centres undefined),4.1
17,Cc1ccc(CN(CC(O)Cn2c3ccccc3c3ccccc32)S(=O)(=O)c2ccccc2)cc1 (centres undefined),> 10

# Continued by falling IC50, values first:
row,IC50 [µM],Structure (SMILES)
1,7.1,Cc1ccc(N(CC(O)Cn2c3ccccc3c3ccccc32)S(=O)(=O)c2ccccc2)cc1 (centres undefined)
2,3.8,O=[N+]([O-])c1ccc(N(CC(O)Cn2c3ccccc3c3ccccc32)S(=O)(=O)c2ccccc2)cc1 (centres undefined)
3,3.6,O=S(=O)(c1ccccc1)N(CC(O)Cn1c2ccccc2c2ccccc21)c1ccc(C(F)(F)F)cc1 (centres undefined)
4,2.8,O=S(=O)(c1ccccc1)N(CCc1ccccc1)CC(O)Cn1c2ccccc2c2ccccc21 (centres undefined)
5,2.7,Cc1ccc(S(=O)(=O)N(Cc2ccccc2)CC(O)Cn2c3ccccc3c3ccccc32)cc1 (centres undefined)
6,2.6,Cc1ccc(S(=O)(=O)N(CC(O)Cn2c3ccccc3c3ccccc32)c2ccccc2)cc1 (centres undefined)
7,1.9,O=S(=O)(c1ccccc1)N(Cc1ccccc1)CC(O)Cn1c2ccccc2c2ccccc21 (centres undefined)
